Measured values from ChEMBL document CHEMBL5252641, “Design, synthesis, and evaluation of benzofuran-based chromenochalcones for antihyperglycemic and antidyslipidemic activities” (RSC Med Chem, 2023).

How the values were obtained:
Syrian golden hamster [1] = assay: Antidyslipidemic activity in Triton-induced hyperlipidemic Syrian golden hamster model assessed as decrease in PL level at 50 mg/kg measured after 18 hrs; type: functional, Mesocricetus auratus; design: scale not given: the % may be the effect or the level left
L6 [2] = assay: Induction of glucose uptake in rat L6 cells expressing GLUT4 myc epitopes at 10 uM incubated for 24 hrs by scintillation counting method relative to control; type: functional
Syrian golden hamster [3] = assay: Antidyslipidemic activity in Triton-induced hyperlipidemic Syrian golden hamster model assessed as increase in post-heparin lipolytic activity at 50 mg/kg measured after 18 hrs; type: functional, Mesocricetus auratus
Syrian golden hamster [4] = assay: Antidyslipidemic activity in Triton-induced hyperlipidemic Syrian golden hamster model assessed as decrease in total cholesterol level at 50 mg/kg measured after 18 hrs; type: functional, Mesocricetus auratus; design: scale not given: the % may be the effect or the level left
Syrian golden hamster [5] = assay: Antidyslipidemic activity in Triton-induced hyperlipidemic Syrian golden hamster model assessed as decrease in triglyceride level at 50 mg/kg measured after 18 hrs; type: functional, Mesocricetus auratus; design: scale not given: the % may be the effect or the level left
[6] = Antioxidant activity assessed as hydroxyl radical scavenging activity at 100 uM incubated for 90 mins by spectrophotometric analysis; type: functional
[7] = Antioxidant activity assessed as superoxide anion radical scavenging activity at 100 uM incubated for 30 mins by spectrophotometric analysis; type: functional
Syrian golden hamster [8] = assay: Antidyslipidemic activity in Triton-induced hyperlipidemic Syrian golden hamster model assessed as increase in lecithin-cholesterol acyltransferase level at 50 mg/kg measured after 18 hrs; type: functional, Mesocricetus auratus
L6 [9] = assay: Cytotoxicity against rat L6 cells assessed as reduction in cell viability at 10 uM by MTT assay; type: toxicity, cell-based; details: l6, 10 µM

COc1ccc(C(=O)c2cc3cc(/C=C/C(=O)c4c(O)ccc5c4OC(C)(CCC=C(C)C)C=C5)ccc3o2)cc1 (centres undefined)
Activity (Syrian golden hamster [1]): 15% | Activity (L6 [2]): 65.5% | Activity (Syrian golden hamster [3]): 19% | Activity (Syrian golden hamster [4]): 16% | Activity (Syrian golden hamster [5]): 16% | Activity [6]: 13 | Activity [7]: 11 | Activity (Syrian golden hamster [8]): 19%

Oc1ncnc2[nH]ncc12
Activity [7]: 37

CC(C)=CCCC1(C)C=Cc2ccc(O)c(C(=O)/C=C/c3ccc4oc(C(=O)c5ccc(Cl)cc5)cc4c3)c2O1 (centres undefined)
Activity (Syrian golden hamster [1]): 18% | Activity (L6 [2]): 4% | Activity (Syrian golden hamster [3]): 24% | Activity (Syrian golden hamster [4]): 11% | Activity (Syrian golden hamster [5]): 18% | Activity [6]: 13 | Activity [7]: 12 | Activity (Syrian golden hamster [8]): 15%

CC(C)=CCCC1(C)C=Cc2ccc(O)c(C(=O)/C=C/c3ccc4oc(C(=O)c5ccccc5)cc4c3)c2O1 (centres undefined)
Activity (Syrian golden hamster [1]): 6% | Activity (L6 [2]): 82.5% | Activity (Syrian golden hamster [3]): 13% | Activity (Syrian golden hamster [4]): 17% | Activity (Syrian golden hamster [5]): 8% | Activity [6]: 13 | Activity [7]: 12 | Activity (Syrian golden hamster [8]): 19%

CC1(C)C=Cc2ccc(O)c(C(=O)/C=C/c3ccc4occc4c3)c2O1
Activity (Syrian golden hamster [1]): 19% | Activity (Syrian golden hamster [3]): 21% | Activity (Syrian golden hamster [4]): 14% | Activity (L6 [9]): Toxic | Activity (Syrian golden hamster [5]): 11% | Activity [6]: 15 | Activity [7]: 18 | Activity (Syrian golden hamster [8]): 18%

COc1ccc(C(=O)c2cc3cc(/C=C/C(=O)c4ccc5c(c4O)C=CC(C)(C)O5)ccc3o2)cc1
Activity (Syrian golden hamster [1]): 13% | Activity (L6 [2]): 109.5% | Activity (Syrian golden hamster [3]): 21% | Activity (Syrian golden hamster [4]): 15% | Activity (Syrian golden hamster [5]): 16% | Activity [6]: 11 | Activity [7]: 16 | Activity (Syrian golden hamster [8]): 19%

COc1ccc(C(=O)c2cc3cc(/C=C/C(=O)c4ccc5c(c4O)C=CC(C)(CCC=C(C)C)O5)ccc3o2)cc1 (centres undefined)
Activity (Syrian golden hamster [1]): 10% | Activity (L6 [2]): 6% | Activity (Syrian golden hamster [3]): 14% | Activity (Syrian golden hamster [4]): 7% | Activity (Syrian golden hamster [5]): 10% | Activity [6]: 7 | Activity [7]: 9 | Activity (Syrian golden hamster [8]): 9%

CC1(C)C=Cc2ccc(O)c(C(=O)/C=C/c3ccc4oc(C(=O)c5ccc(Cl)cc5)cc4c3)c2O1
Activity (Syrian golden hamster [1]): 6% | Activity (L6 [2]): 89% | Activity (Syrian golden hamster [3]): 11% | Activity (Syrian golden hamster [4]): 8% | Activity (Syrian golden hamster [5]): 7% | Activity [6]: 12 | Activity [7]: 17 | Activity (Syrian golden hamster [8]): 10%

CC(C)=CCCC1(C)C=Cc2c(ccc(C(=O)/C=C/c3ccc4oc(C(=O)c5ccccc5)cc4c3)c2O)O1 (centres undefined)
Activity (Syrian golden hamster [1]): 13% | Activity (L6 [2]): 20.5% | Activity (Syrian golden hamster [3]): 18% | Activity (Syrian golden hamster [4]): 21% | Activity (Syrian golden hamster [5]): 10% | Activity [6]: 18 | Activity [7]: 18 | Activity (Syrian golden hamster [8]): 25%

CC1(C)C=Cc2c(O)c(C(=O)/C=C/c3ccc4oc(C(=O)c5ccc(Cl)cc5)cc4c3)c3c(c2O1)C=CC(C)(C)O3
Activity (Syrian golden hamster [1]): 16% | Activity (L6 [2]): 27% | Activity (Syrian golden hamster [3]): 26% | Activity (Syrian golden hamster [4]): 11% | Activity (Syrian golden hamster [5]): 24% | Activity [6]: 13 | Activity [7]: 21 | Activity (Syrian golden hamster [8]): 15%

COc1ccc(C(=O)c2cc3cc(/C=C/C(=O)c4c(O)c5c(c6c4OC(C)(CCC=C(C)C)C=C6)OC(C)(CCC=C(C)C)C=C5)ccc3o2)cc1 (centres undefined)
Activity (Syrian golden hamster [1]): 13% | Activity (L6 [2]): 37% | Activity (Syrian golden hamster [3]): 16% | Activity (Syrian golden hamster [4]): 18% | Activity (Syrian golden hamster [5]): 14% | Activity [6]: 11 | Activity [7]: 9 | Activity (Syrian golden hamster [8]): 21%

CC(C)=CCCC1(C)C=Cc2ccc(O)c(C(=O)/C=C/c3ccc4occc4c3)c2O1 (centres undefined)
Activity (Syrian golden hamster [1]): 11% | Activity (L6 [2]): 108% | Activity (Syrian golden hamster [3]): 17% | Activity (Syrian golden hamster [4]): 10% | Activity (Syrian golden hamster [5]): 11% | Activity [6]: 19 | Activity [7]: 11 | Activity (Syrian golden hamster [8]): 14%
